Like-named read-outs stand apart in the source and are kept apart here.
Assays:
[1] = target: glucosylceramide synthase (GCS) (Homo sapiens (Human), UniProt Q16739); assay: Evaluation of inhibitory activities against GCS (enzyme reaction with A549 cell lysate, NBD C6-ceramide, HPLC fluorescence); format: biochemical; conditions: GCS activity in A549 cell lysate, 37° C. for 90 minutes
How it was run: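 Lysate of A549 cells in 50 mM HEPES pH 7.3 incubated with test compound and NBD C6-ceramide at 37 °C for 90 min; lipids extracted with chloroform/methanol and GlcCer and ceramide peaks quantified by HPLC fluorescence. Activity from GlcCer area fraction, normalised between DMSO and ibiglustat controls.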

GM1 production = assay: cells; format: cell-based

glucosylceramide synthase (GCS), sequence (Q16739 whole entry, looked up): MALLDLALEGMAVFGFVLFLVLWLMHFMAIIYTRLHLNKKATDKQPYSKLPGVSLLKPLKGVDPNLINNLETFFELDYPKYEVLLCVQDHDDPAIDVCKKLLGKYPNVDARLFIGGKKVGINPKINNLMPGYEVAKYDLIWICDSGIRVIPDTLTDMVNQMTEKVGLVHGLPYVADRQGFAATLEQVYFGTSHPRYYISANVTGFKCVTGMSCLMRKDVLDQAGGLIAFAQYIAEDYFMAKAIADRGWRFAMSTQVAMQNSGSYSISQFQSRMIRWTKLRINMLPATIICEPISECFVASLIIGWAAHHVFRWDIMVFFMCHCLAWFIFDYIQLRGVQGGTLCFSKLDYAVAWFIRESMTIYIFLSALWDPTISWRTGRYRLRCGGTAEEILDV

Row | Structure (SMILES) | IC50 [1] | IC50 (GM1 production; Homo sapiens, Jurkat, 72 h) | IC50 (GM1 production; read-out: IC50)
1 | CCCc1ccc(-c2ccc3c(c2)CCC2(CC2)C3NC(=O)O[C@@H]2CN3CCC2CC3)cc1 (stereo partly drawn) [Example 222, (S)-quinuclidin-3-yl (6′-(4-propylphenyl)-3′,4′-dihydro-1′H-spiro[cyclopropane-1,2′-naphthalen]-1′-yl)carbamate] | 0.00075 µM | 0.0093 µM | –
2 | O=C(NC1CCCc2ccc(-c3ccccc3C(F)(F)F)cc21)O[C@@H]1CN2CCC1CC2 (stereo partly drawn) [Example 63, (S)-quinuclidin-3-yl (7-(2-(trifluoromethyl)phenyl)-1,2,3,4-tetrahydronaphthalen-1-yl)carbamate] | 0.0067 µM | 0.0418 µM | –
3 | CC1(C)CCc2cc(-c3ccc(F)cc3F)ccc2C1NC(=O)O[C@@H]1CN2CCC1CC2 (stereo partly drawn) [Example 101, (S)-quinuclidin-3-yl (6-(2,4-difluorophenyl)-2,2-dimethyl-1,2,3,4-tetrahydronaphthalen-1-yl)carbamate] | 0.00159 µM | 0.00255 µM | –
4 | O=C(NC1CCCc2cc(-c3ccc(OC(F)(F)F)cc3)ccc21)O[C@@H]1CN2CCC1CC2 (stereo partly drawn) [Example 4, (S)-quinuclidin-3-yl (6-(4-(trifluoromethoxy)phenyl)-1,2,3,4-tetrahydronaphthalen-1-yl)carbamate] | 0.00142 µM | 0.0349 µM | –
5 | COc1cc(-c2ccc3c(c2)CCC(C)(C)C3NC(=O)O[C@@H]2CN3CCC2CC3)ccc1Cl (stereo partly drawn) [Example 124, (S)-quinuclidin-3-yl (6-(4-chloro-3-methoxyphenyl)-2,2-dimethyl-1,2,3,4-tetrahydronaphthalen-1-yl)carbamate] | 0.0016 µM | 0.00335 µM | –
6 | O=C(NC1CCCc2cc(-c3cnc4[nH]ccc4c3)ccc21)O[C@@H]1CN2CCC1CC2 (stereo partly drawn) [Example 52, (S)-quinuclidin-3-yl (6-(1H-pyrrolo[2,3-b]pyridin-5-yl)-1,2,3,4-tetrahydronaphthalen-1-yl)carbamate] | 0.0318 µM | 0.0227 µM | –
7 | CC1(C)CCc2cc(-c3ccc(Cl)cc3)ccc2C1NC(=O)O[C@@H]1CN2CCC1CC2 (stereo partly drawn) [Example 87, (S)-quinuclidin-3-yl (6-(4-chlorophenyl)-2,2-dimethyl-1,2,3,4-tetrahydronaphthalen-1-yl)carbamate] | 0.006 µM | 0.0195 µM | –
8 | Cc1ccc(-c2ccc3c(c2)C(NC(=O)O[C@@H]2CN4CCC2CC4)CCC3)cc1 (stereo partly drawn) [Example 57, (S)-quinuclidin-3-yl (7-(p-tolyl)-1,2,3,4-tetrahydronaphthalen-1-yl)carbamate] | 0.0234 µM | 0.0812 µM | –
9 | O=C(NC1CCCc2ccc(-c3cc(F)c(F)cc3F)cc21)O[C@@H]1CN2CCC1CC2 (stereo partly drawn) [Example 66, (S)-quinuclidin-3-yl (7-(2,4,5-trifluorophenyl)-1,2,3,4-tetrahydronaphthalen-1-yl)carbamate] | 0.0469 µM | 0.103 µM | –
10 | COCOc1ccccc1-c1ccc2c(c1)CCCC2NC(=O)O[C@@H]1CN2CCC1CC2 (stereo partly drawn) [Example 30, (S)-quinuclidin-3-yl (6-(2-(methoxymethoxy)phenyl)-1,2,3,4-tetrahydronaphthalen-1-yl)carbamate] | 0.00793 µM | 0.0714 µM | –
11 | O=C(NC1CCCc2cc(-c3ccc(F)c(F)c3)ccc21)O[C@@H]1CN2CCC1CC2 (stereo partly drawn) [Example 15, (S)-quinuclidin-3-yl (6-(3,4-difluorophenyl)-1,2,3,4-tetrahydronaphthalen-1-yl)carbamate] | 0.00688 µM | 0.0197 µM | –
12 | CCOc1ccc(-c2ccc3c(c2)C(NC(=O)O[C@@H]2CN4CCC2CC4)CCC3)cc1 (stereo partly drawn) [Example 81, (S)-quinuclidin-3-yl (7-(4-ethoxyphenyl)-1,2,3,4-tetrahydronaphthalen-1-yl)carbamate] | 0.0633 µM | 0.41 µM | –
13 | O=C(NC1CCCc2ccc(-c3cc(F)cc(F)c3)cc21)O[C@@H]1CN2CCC1CC2 (stereo partly drawn) [Example 68, (S)-quinuclidin-3-yl (7-(3,5-difluorophenyl)-1,2,3,4-tetrahydronaphthalen-1-yl)carbamate] | 0.0635 µM | 0.276 µM | –
14 | CC1(C)CCc2cc(-c3ccnc(C(F)(F)F)c3)ccc2C1NC(=O)O[C@@H]1CN2CCC1CC2 (stereo partly drawn) [Example 119, (S)-quinuclidin-3-yl (2,2-dimethyl-6-(2-(trifluoromethyl)pyridin-4-yl)-1,2,3,4-tetrahydronaphthalen-1-yl) carbamate] | 0.0112 µM | – | 0.00186 µM
15 | COCCOc1ccc(-c2ccc3c(c2)C(NC(=O)O[C@@H]2CN4CCC2CC4)CCC3)cc1 (stereo partly drawn) [Example 79, (S)-quinuclidin-3-yl (7-(4-(2-methoxyethoxy)phenyl)-1,2,3,4-tetrahydronaphthalen-1-yl)carbamate] | 0.0129 µM | 0.0653 µM | –
16 | CC1(C)CCc2cc(-c3ccc(OC(F)(F)F)cc3)ccc2C1NC(=O)O[C@@H]1CN2CCC1CC2 (stereo partly drawn) [Example 89, (S)-quinuclidin-3-yl (2,2-dimethyl-6-(4-(trifluoromethoxy)phenyl)-1,2,3,4-tetrahydronaphthalen-1-yl)carbamate] | 0.0022 µM | 0.00779 µM | –
17 | O=C(NC1CCCc2cc(-c3cncnc3)ccc21)O[C@@H]1CN2CCC1CC2 (stereo partly drawn) [Example 53, (S)-quinuclidin-3-yl (6-(pyrimidin-5-yl)-1,2,3,4-tetrahydronaphthalen-1-yl)carbamate] | 0.0864 µM | 0.314 µM | –
18 | O=C(NC1CCCc2cc(-c3ccc(N4CCOCC4)cc3)ccc21)O[C@@H]1CN2CCC1CC2 (stereo partly drawn) [Example 45, (S)-quinuclidin-3-yl (6-(4-morpholinophenyl)-1,2,3,4-tetrahydronaphthalen-1-yl)carbamate] | 0.0213 µM | 0.152 µM | –
19 | Cc1cc(-c2ccc3c(c2)CCC(C)(C)C3NC(=O)O[C@@H]2CN3CCC2CC3)ccn1 (stereo partly drawn) [Example 117, (S)-quinuclidin-3-yl (2,2-dimethyl-6-(2-methylpyridin-4-yl)-1,2,3,4-tetrahydronaphthalen-1-yl)carbamate] | 0.0303 µM | 0.0378 µM | –
20 | COc1ccc(-c2ccc3c(c2)CCC(C)(C)C3NC(=O)O[C@@H]2CN3CCC2CC3)cc1Cl (stereo partly drawn) [Example 139, (S)-quinuclidin-3-yl (6-(3-chloro-4-methoxyphenyl)-2,2-dimethyl-1,2,3,4-tetrahydronaphthalen-1-yl)carbamate] | 0.00478 µM | 0.0088 µM | –
21 | O=C(NC1CCCc2cc(-c3ccc(C4CC4)cc3)ccc21)O[C@H]1CN2CCC1CC2 (stereo partly drawn) [Example 37, (S)-quinuclidin-3-yl (6-(4-cyclopropyl)-1,2,3,4-tetrahydronaphthalen-1-yl)carbamate] | 0.00507 µM | – | 0.286 µM
22 | COc1cccc(-c2ccc3c(c2)C(NC(=O)O[C@@H]2CN4CCC2CC4)CCC3)c1 (stereo partly drawn) [Example 77, (S)-quinuclidin-3-yl (7-(3-methoxyphenyl)-1,2,3,4-tetrahydronaphthalen-1-yl)carbamate] | 0.0749 µM | 0.197 µM | –
23 | O=C(NC1CCCc2cc(-c3ccc(C(F)(F)F)cc3)ccc21)O[C@@H]1CN2CCC1CC2 (stereo partly drawn) [Example 3, (S)-quinuclidin-3-yl (6-(4-(trifluoromethyl)phenyl)-1,2,3,4-tetrahydronaphthalen-1-yl)carbamate] | 0.0023 µM | 0.0587 µM | –
24 | CC(C)Oc1cccc(-c2ccc3c(c2)CCC(C)(C)C3NC(=O)O[C@@H]2CN3CCC2CC3)c1 (stereo partly drawn) [Example 132, (S)-quinuclidin-3-yl (6-(3-isopropoxyphenyl)-2,2-dimethyl-1,2,3,4-tetrahydronaphthalen-1-yl)carbamate] | 0.00116 µM | 0.002 µM | –
25 | COCOc1cccc(-c2ccc3c(c2)CCCC3NC(=O)O[C@@H]2CN3CCC2CC3)c1 (stereo partly drawn) [Example 28, (S)-quinuclidin-3-yl (6-(3-(methoxymethoxy)phenyl)-1,2,3,4-tetrahydronaphthalen-1-yl)carbamate] | 0.00133 µM | 0.00531 µM | –
26 | O=C(NC1CCCc2ccc(-c3cc(F)ccc3F)cc21)O[C@@H]1CN2CCC1CC2 (stereo partly drawn) [Example 67, (S)-quinuclidin-3-yl (7-(2,5-difluorophenyl)-1,2,3,4-tetrahydronaphthalen-1-yl)carbamate] | 0.0073 µM | 0.0383 µM | –

From US12338237B2, “Derivatives having 1,2,3,4-tetrahydronaphthalene moiety or pharmaceutically acceptable salt thereof and pharmaceutical compositions comprising the same” (YUHAN CORPORATION, priority 2019, dated 2025)
